The series deals with CCRIS mutagenicity, Ames/micronucleus/aberration tests. As to the kind of experiment: CCRIS mutagenicity studies. The following applies: Test System: AMES SALMONELLA TYPHIMURIUM
[1] abbreviates: Strain/Indicator: TA100, Metabolic Activation: NONE, Method: STANDARD PLATE.

Activity calls are given as the source filed them. How the calls were made is not given here.

Turning to `Nc1nc2ccccc2[nH]1`, the mutagenic call is “inactive; negative” (Strain/Indicator: TA97, Metabolic Activation: HAMSTER, LIVER, S-9, AROCLOR 1254 (10%), Method: PREINCUBATION); “inactive; negative” (Strain/Indicator: TA97, Metabolic Activation: HAMSTER, LIVER, S-9, AROCLOR 1254 (30%), Method: PREINCUBATION); “inactive; negative” (Strain/Indicator: TA97, Metabolic Activation: NONE, Method: PREINCUBATION); “inactive; negative” (Strain/Indicator: TA97, Metabolic Activation: RAT, LIVER, S-9, AROCLOR 1254 (10%), Method: PREINCUBATION); “inactive; negative” (Strain/Indicator: TA97, Metabolic Activation: RAT, LIVER, S-9, AROCLOR 1254 (30%), Method: PREINCUBATION); “inactive; negative” (Strain/Indicator: TA98, Metabolic Activation: HAMSTER, LIVER, S-9, AROCLOR 1254 (10%), Method: PREINCUBATION). The mutagenic call is “inactive; negative” (Strain/Indicator: TA98, Metabolic Activation: HAMSTER, LIVER, S-9, AROCLOR 1254 (30%), Method: PREINCUBATION); “inactive; negative” (Strain/Indicator: TA98, Metabolic Activation: NONE, Method: PREINCUBATION); “inactive; negative” (Strain/Indicator: TA98, Metabolic Activation: RAT, LIVER, S-9, AROCLOR 1254 (10 OR 30%), Method: PREINCUBATION); “active; positive” (Strain/Indicator: TA98, Metabolic Activation: RAT, LIVER, S-9, AROCLOR 1254, Method: PREINCUBATION); “inactive; negative” (Strain/Indicator: TA100, Metabolic Activation: HAMSTER, LIVER, S-9, AROCLOR 1254 (10%), Method: PREINCUBATION); “inactive; negative” (Strain/Indicator: TA100, Metabolic Activation: HAMSTER, LIVER, S-9, AROCLOR 1254 (30%), Method: PREINCUBATION). Moreover, the mutagenic call (Strain/Indicator: TA100, Metabolic Activation: NONE, Method: PREINCUBATION) is “inactive; negative”; the mutagenic call (Strain/Indicator: TA100, Metabolic Activation: RAT, LIVER, S-9, AROCLOR 1254 (5%), Method: PREINCUBATION) is “inactive; negative”; the mutagenic call (Strain/Indicator: TA100, Metabolic Activation: RAT, LIVER, S-9, AROCLOR 1254 (10 OR 30%), Method: PREINCUBATION) was “inactive; negative”; the mutagenic call (Strain/Indicator: TA100, Metabolic Activation: RAT, LIVER, S-9, AROCLOR 1254, Method: PREINCUBATION) was “inactive; negative”; the mutagenic call (Strain/Indicator: TA1535, Metabolic Activation: HAMSTER, LIVER, S-9, AROCLOR 1254 (10%), Method: PREINCUBATION) is “inactive; negative”; the mutagenic call (Strain/Indicator: TA1535, Metabolic Activation: HAMSTER, LIVER, S-9, AROCLOR 1254 (30%), Method: PREINCUBATION) was “inactive; negative”. Further, the mutagenic call reads like this: (Strain/Indicator: TA1535, Metabolic Activation: NONE, Method: PREINCUBATION) “inactive; negative”; (Strain/Indicator: TA1535, Metabolic Activation: RAT, LIVER, S-9, AROCLOR 1254 (10 OR 30%), Method: PREINCUBATION) “inactive; negative”; (Strain/Indicator: TA1537, Metabolic Activation: HAMSTER, LIVER, S-9, AROCLOR 1254 (10%), Method: PREINCUBATION) “inactive; negative”; (Strain/Indicator: TA1537, Metabolic Activation: HAMSTER, LIVER, S-9, AROCLOR 1254 (30%), Method: PREINCUBATION) “inactive; negative”; (Strain/Indicator: TA1537, Metabolic Activation: NONE, Method: PREINCUBATION) “inactive; negative”; (Strain/Indicator: TA1537, Metabolic Activation: RAT, LIVER, S-9, AROCLOR 1254 (10 OR 30%), Method: PREINCUBATION) “inactive; negative”.

With `C[C@H](CCC(=O)O)[C@H]1CC[C@H]2[C@@H]3[C@@H](O)C[C@@H]4C[C@H](O)CC[C@]4(C)[C@H]3CC[C@]12C`, the mutagenic call (Strain/Indicator: TA98, Metabolic Activation: NONE, Method: FLUCTUATION TEST) is “active; positive”; the mutagenic call (Strain/Indicator: TA100, Metabolic Activation: NONE, Method: FLUCTUATION TEST) is “inactive; negative”; the mutagenic call under setting [1] was “inactive; negative”; the mutagenic call (Strain/Indicator: TA100, Metabolic Activation: RAT, LIVER, S-9, AROCLOR 1254, Method: STANDARD PLATE) is “inactive; negative”.

Regarding `C/C=C/C=C/CCCCCCCOC(C)=O`, the mutagenic call reads like this: (Strain/Indicator: TA98, Metabolic Activation: NONE, Method: STANDARD PLATE) “inactive; negative”; (Strain/Indicator: TA98, Metabolic Activation: RAT, LIVER, S-9, Method: STANDARD PLATE) “inactive; negative”; under setting [1], “inactive; negative”; (Strain/Indicator: TA100, Metabolic Activation: RAT, LIVER, S-9, Method: STANDARD PLATE) “inactive; negative”; (Strain/Indicator: TA102, Metabolic Activation: NONE, Method: STANDARD PLATE) “inactive; negative”; (Strain/Indicator: TA102, Metabolic Activation: RAT, LIVER, S-9, Method: STANDARD PLATE) “inactive; negative”.

These data come from PubChem BioAssay AID1259407 (Chemical Carcinogenesis Research Information System (CCRIS), 2018).
